# Assay results as given in ChEMBL document CHEMBL1201862, “PubChem BioAssay data set” (2004).
# Active and inactive are the calls of the source.
# Key:
# [1] = target: T1, Replicative DNA helicase DnaB (Mycobacterium tuberculosis, UniProt P9WMR3); assay: DnaB intein splicing inhibitors, dose response, biochemical, cell-free fluorescence (AID 449749); type: functional
# T1 sequence (P9WMR3 whole entry): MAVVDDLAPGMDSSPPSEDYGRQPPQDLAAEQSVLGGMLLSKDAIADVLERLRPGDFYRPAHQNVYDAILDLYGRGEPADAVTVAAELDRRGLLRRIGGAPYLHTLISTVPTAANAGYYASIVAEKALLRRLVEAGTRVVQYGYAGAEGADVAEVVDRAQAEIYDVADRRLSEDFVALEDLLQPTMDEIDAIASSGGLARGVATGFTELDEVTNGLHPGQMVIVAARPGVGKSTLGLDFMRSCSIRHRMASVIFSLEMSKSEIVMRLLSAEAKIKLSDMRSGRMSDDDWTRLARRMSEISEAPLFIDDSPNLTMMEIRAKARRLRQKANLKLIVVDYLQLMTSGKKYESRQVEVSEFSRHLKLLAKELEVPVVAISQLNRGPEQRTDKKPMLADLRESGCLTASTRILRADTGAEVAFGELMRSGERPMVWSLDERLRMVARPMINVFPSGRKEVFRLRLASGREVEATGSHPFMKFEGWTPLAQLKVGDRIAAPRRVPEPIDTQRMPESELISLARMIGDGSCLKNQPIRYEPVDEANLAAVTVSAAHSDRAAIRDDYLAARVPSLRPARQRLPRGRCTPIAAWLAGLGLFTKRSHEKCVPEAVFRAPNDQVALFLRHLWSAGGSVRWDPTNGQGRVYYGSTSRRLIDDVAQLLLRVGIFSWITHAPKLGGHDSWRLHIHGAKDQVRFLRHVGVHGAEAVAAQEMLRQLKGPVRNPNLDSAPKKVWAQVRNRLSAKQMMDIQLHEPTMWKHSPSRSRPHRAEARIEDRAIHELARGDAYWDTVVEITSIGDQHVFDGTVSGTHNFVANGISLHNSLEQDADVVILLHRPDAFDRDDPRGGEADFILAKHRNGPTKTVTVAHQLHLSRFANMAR
# Protein RecA = target: T2, Protein RecA (Mycobacterium tuberculosis, UniProt P9WHJ3); assay: Fluorescence Cell-Free Homogeneous Dose Retest to Identify Inhibitors of RecA-Intein Splicing Activity. [Related pubchem assays (depositor defined):AID2097, AID2223, AID489010, AID492950]; type: functional
# T2 sequence (P9WHJ3 whole entry): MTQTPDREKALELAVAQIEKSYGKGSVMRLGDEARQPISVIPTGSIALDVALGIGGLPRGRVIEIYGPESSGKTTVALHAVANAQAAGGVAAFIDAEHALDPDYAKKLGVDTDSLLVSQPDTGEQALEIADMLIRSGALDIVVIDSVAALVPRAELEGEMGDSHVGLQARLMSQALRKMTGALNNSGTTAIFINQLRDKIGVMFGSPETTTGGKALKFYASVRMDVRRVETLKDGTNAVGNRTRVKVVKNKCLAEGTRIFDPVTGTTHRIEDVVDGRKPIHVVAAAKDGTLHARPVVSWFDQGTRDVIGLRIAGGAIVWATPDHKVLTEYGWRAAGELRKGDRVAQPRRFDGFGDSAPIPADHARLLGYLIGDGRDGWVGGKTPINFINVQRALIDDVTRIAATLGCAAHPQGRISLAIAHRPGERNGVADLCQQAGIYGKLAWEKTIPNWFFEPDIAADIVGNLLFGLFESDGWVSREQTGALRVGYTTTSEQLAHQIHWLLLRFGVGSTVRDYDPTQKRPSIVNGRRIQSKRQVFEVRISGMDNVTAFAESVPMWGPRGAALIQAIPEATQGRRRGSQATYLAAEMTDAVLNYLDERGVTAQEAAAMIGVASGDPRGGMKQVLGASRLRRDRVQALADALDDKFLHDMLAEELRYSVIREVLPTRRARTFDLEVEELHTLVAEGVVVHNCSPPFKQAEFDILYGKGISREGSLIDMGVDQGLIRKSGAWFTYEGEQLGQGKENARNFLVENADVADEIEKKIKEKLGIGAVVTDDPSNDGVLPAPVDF
# [2] = NIH-3T3 fibroblast cytotoxicity, dose response, cytotoxicity control, cell-based, fluorescence, Alamar Blue, secondary assay (AID 2327); type: functional;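 note: NIH-3T3 mouse fibroblasts cultured with fluconazole at 8 µg/mL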
# [3] = C. albicans growth with fluconazole, confirmation, fluorescence, retest (AID 2467); type: functional, cell-based
# [4] = inhibitors of intracellular T. cruzi replication, confirmation, NIH3T3 host cells, beta-gal luminescence (AID 2044); type: functional, cell-based;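 note: intracellular parasites grown in NIH/3T3 mouse fibroblasts as host cells; luminescent beta-galactosidase reporter signal from transgenic T. cruzi replicating inside host cells; inhibitors lower the luminescence signal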
# [5] = growth suppression of PTEN-null colon cells, dose response, cell-based, HCT116 PTEN knockout (AID 1047); type: functional;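 note: HCT116 colon tumor cells with PTEN knocked out; cells exposed to compound for 60 hours before readout; potency for loss of cell viability measured by luminescence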
# [6] = cytotoxicity toward NIH3T3 fibroblasts, dose response, counter-screen, cell-based, ATP luminescence, mouse fibroblasts (AID 2010); type: functional;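 note: cells exposed to compound for about 90 hours before reading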
# [7] = growth suppression of beta-catenin-knockout colon cells, dose response, cell-based, HCT116, human colon tumor (AID 1045); type: functional;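 note: HCT116 colon tumor cells with beta catenin knocked out; cells exposed to compound for 60 hours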
# [8] = microbe, parasite or virus in culture; type: functional; details: Mycobacterium tuberculosis
# [9] = target: T3, Heat shock factor protein 1 (Mus musculus, UniProt P38532); assay: HSF1 potentiators in luciferase reporter cells, confirmation, cell-based, NIH3T3, luminescence, dose retest (AID 435004); type: functional;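 note: stress induced by proteasome inhibitor MG132 added 30 min after compound; luciferase reporter driven by HSF1 response element in NIH3T3 cells; actives raise luminescence as potentiators of the MG132 stress response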
# T3 sequence (P38532 whole entry): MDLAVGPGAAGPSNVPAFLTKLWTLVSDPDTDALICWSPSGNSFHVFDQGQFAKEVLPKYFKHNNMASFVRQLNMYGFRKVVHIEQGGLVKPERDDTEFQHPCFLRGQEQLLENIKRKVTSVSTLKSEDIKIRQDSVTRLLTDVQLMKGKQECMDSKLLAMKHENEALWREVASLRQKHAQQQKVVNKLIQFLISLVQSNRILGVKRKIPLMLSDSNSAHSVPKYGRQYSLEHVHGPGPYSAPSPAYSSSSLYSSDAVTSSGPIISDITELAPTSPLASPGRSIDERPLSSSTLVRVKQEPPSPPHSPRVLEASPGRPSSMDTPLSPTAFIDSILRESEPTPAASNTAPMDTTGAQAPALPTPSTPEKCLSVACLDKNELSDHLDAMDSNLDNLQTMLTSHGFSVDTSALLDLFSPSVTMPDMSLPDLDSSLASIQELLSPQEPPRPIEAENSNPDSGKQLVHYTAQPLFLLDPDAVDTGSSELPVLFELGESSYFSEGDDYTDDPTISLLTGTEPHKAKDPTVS
# [10] = Luminescence Cell-Based Dose Confirmation HTS to Identify Activators of 5'UTR Stem-Loop Driven Alpha-Synuclein mRNA Translation in H4 Neuroglioblastoma Cells. [Related pubchem assays: 1829 (Project Summary), 1814 (Primary HTS)]; type: functional
# [11] = Luminescence Cell-Based Dose Response HTS to Identify Activators of Luciferase Translation or Activity in H4 […] Cells. [Related pubchem assays: 1829 (Project Summary), 1814 (Primary HTS)]; type: functional
# H4 = assay: Luminescence Cell-Based Dose Response HTS to Identify Activators of 5'UTR Stem-Loop Driven Prion Protein mRNA Translation in H4 Neuroglioblastoma Cells. [Related pubchem assays: 1829 (Project Summary), 1814 (Primary HTS)]; type: functional; details: Homo sapiens
# [12] = Luminescence Cell-Based Dose Retest to Confirm Inhibitors of Cancer Stem Cells. [Related pubchem assays (depositor defined):AID2717, AID2721]; type: functional; details: Homo sapiens
# [13] = Shn3 3'UTR reporter inhibitors, dose response, cell-based, Clone20 osteoblasts, firefly luciferase, cherry-picked (AID 624132); type: functional;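 note: firefly luciferase luminescence from reporter carrying the Shn3 3'UTR in osteoblasts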
# [14] = system: Streptococcus sp. 'group A'; assay: growth inhibition of control SK(-) GAS strain, dose response, counter-screen for streptokinase expression inhibitor project, luminescence, kanamycin, BacTiterGlo, confirmation (AID 1900); type: functional, organism-based
# Streptokinase A = target: T4, Streptokinase A (Streptococcus pyogenes serotype M1, UniProt P10520); assay: S. pyogenes streptokinase expression inhibitors, potency, dose response, plasminogen activation absorbance, OD405 (AID 1914); type: functional, Streptococcus pyogenes M1 GAS;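 note: secreted streptokinase activity via plasminogen activation per viability signal from cell pellet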
# T4 sequence (P10520 whole entry): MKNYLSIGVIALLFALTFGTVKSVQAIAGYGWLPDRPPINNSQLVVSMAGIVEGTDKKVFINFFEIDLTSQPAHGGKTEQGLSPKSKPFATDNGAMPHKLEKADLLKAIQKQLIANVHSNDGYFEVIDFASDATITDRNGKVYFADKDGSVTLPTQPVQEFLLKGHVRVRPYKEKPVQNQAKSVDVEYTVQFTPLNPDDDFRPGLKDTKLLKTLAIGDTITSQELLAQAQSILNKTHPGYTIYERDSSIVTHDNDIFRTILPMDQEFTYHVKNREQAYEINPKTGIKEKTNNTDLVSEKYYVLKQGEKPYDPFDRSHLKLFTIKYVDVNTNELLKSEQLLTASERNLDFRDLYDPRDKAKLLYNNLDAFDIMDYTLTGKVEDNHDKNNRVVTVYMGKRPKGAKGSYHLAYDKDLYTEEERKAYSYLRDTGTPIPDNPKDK
# Streptococcus = assay: Group A Streptococcus viability loss, dose response, counter-screen for streptokinase expression inhibitor project, luminescence, BacTiterGlo (AID 1915); type: functional, organism-based;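 note: potency for reduction of bacterial viability or growth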
# INS1 = assay: beta cell apoptosis inhibitors, cytokine rescue, dose response, luminescence, retest (AID 449756); type: functional, cell-based; details: Rattus norvegicus;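 note: cell death triggered by IL-1 beta plus TNF-alpha plus IFN-gamma mixture; protective hits raise ATP signal compared with cytokine alone wells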
# [15] = P. falciparum Dd2 growth inhibitors, dose response, SYBR Green, cherry-picked samples (AID 1159567); type: functional, cell-based
Structure (SMILES),AC50 [1],EC50 (Protein RecA),AC50 [15],further results
COc1ccc(S(=O)(=O)c2cnc3ccccc3n2)cc1,54.1 µM (active),16.4 µM (active),–,–
CCn1c(COc2cccc3ccccc23)nnc1SCC(N)=O,273 µM (active),> 380 µM (inactive),–,–
O=c1cc(-c2c(F)c(F)c(F)c(F)c2F)oc2c(F)c(F)c(F)c(F)c12,7.17 µM (active),2.92 µM (active),–,EC50 [2]: 2.66 µM (inconclusive); EC50 [3]: 0.52 µM (active); EC50 [4]: 0.663 µM (active); EC50 [5]: 5.95 µM (active); EC50 [6]: 1.04 µM (active); EC50 [7]: 3.37 µM (active)
Cc1ccc(C(C(=O)NCC2CCCO2)N(Cc2ccccc2)C(=O)c2ccc(-c3ccccc3)[nH]2)o1 (centres undefined),–,–,–,CC50 [8]: > 40 µM (active)
Cc1ccc2nc(-c3cccs3)oc(=O)c2c1,117 µM (active),60.5 µM (active),–,–
CCOc1cc(/C=C2/C(=N)N3C(=NC2=O)SN=C3S(=O)(=O)C(C)C)ccc1OC(=O)c1ccco1,> 380 µM (inactive),18.6 µM (active),–,–
Cc1cc(NC(=O)c2cc(-c3ccncc3)nc3c(C)cccc23)no1,–,–,–,CC50 [8]: 9.08 µM (active)
COC(=O)C(C)Sc1ncnc2c1nnn2-c1ccc(F)cc1 (centres undefined),5.57 µM (active),5.09 µM (active),–,EC50 [9]: 11.6 µM (active)
NC(=O)CC[C@@H]1NC(=O)[C@H](CO)NC(=O)c2cc([N+](=O)[O-])cc(I)c2NCC[C@@H](C(N)=O)NC1=O,47.5 µM (active),13.3 µM (active),–,–
CCCc1ccc(-c2cc(NC(=O)CSc3n[nH]c(N)n3)n(-c3ccccc3)n2)cc1,–,–,–,EC50 [10]: 7.46 µM (active); EC50 [11]: 6.51 µM (active); EC50 (H4): 53.5 µM (active); AC50 [12]: 4.18 µM (active)
Cc1nn(Cc2ccccc2)c2c1C(c1cccnc1)C(C#N)=C(N)O2 (centres undefined),8.8 µM (active),2.78 µM (active),–,–
CNS(=O)(=O)c1cccc(C(=O)OCc2cc(C(C)=O)ccc2OC)c1,–,–,–,AC50 [13]: 11.2 µM (active)
CC(C)S(=O)(=O)C1=NSC2=NC(=O)/C(=C\c3ccc(OC(=O)c4ccco4)cc3)C(=N)N21,17 µM (active),10.9 µM (active),–,–
CC(C)(C)[C@@H]1CCC(=O)N(CC[C@H](Sc2ccccc2)c2ccccc2)CC1,–,–,–,EC50 [14]: 6.49 µM (active); EC50 (Streptokinase A): > 150 µM (not active); EC50 (Streptococcus): 5.87 µM (active); AC50 [12]: 3.92 µM (active)
CC1=NN(c2ccc(N)cc2)C(=O)C1,2.41 µM (active),1.78 µM (active),–,–
O=C1NC(c2ccc(-c3ccccc3[N+](=O)[O-])o2)C(C(=O)c2ccc(F)cc2)C(O)(C(F)(F)F)N1 (centres undefined),13.3 µM (active),> 380 µM (inconclusive),–,–
Cc1nc2c(-c3ccc(F)cc3)c(C)nn2c(O)c1Cl,31.1 µM (active),11 µM (active),–,–
Cc1cc(C(=O)N/N=C\C(Br)=C\c2ccccc2)c(C)o1,–,–,–,CC50 [8]: > 40 µM (active)
CCCCCCSc1cccc(-c2nc3ccccn3c2NCc2ccccc2)c1,–,–,–,AC50 [12]: 6.43 µM (active); AC50 (INS1): 7.57 µM (active)
COc1ccc2c3c([nH]c2c1)[C@H](CO)N(Cc1ccccc1Cl)CC31CN(C(=O)C2CC2)C1,–,–,5.65 µM (active),–
C/C=C/c1ccc([C@@H]2[C@@H](CO)N(CC3CCCC3)C23CN(S(=O)(=O)CC)C3)cc1,–,–,4.7 µM (active),–
C[C@H]1CN([C@@H](C)CO)C(=O)c2cc(NC(=O)Cc3cn(C)c4ccccc34)ccc2O[C@H]1CN(C)S(=O)(=O)c1cccs1,–,–,6.48 µM (active),–
COc1ccc2c3c([nH]c2c1)[C@@H](CO)N(Cc1ccccc1F)CC31CN(C(=O)C2CCC2)C1,–,–,7.2 µM (active),–
C[C@@H]1CN([C@@H](C)CO)C(=O)c2c(c3ccccc3n2C)-c2ccccc2CO[C@H]1CN(C)Cc1cccc(C(F)(F)F)c1,–,–,3.05 µM (active),–
CCCC(=O)N1CCC2(CC1)CN(Cc1cccnc1)[C@@H](CO)c1[nH]c3cc(OC)ccc3c12,–,–,5.19 µM (active),–
O=C(Cc1ccncc1)N1CC[C@@H]2[C@@H](CO)Nc3ccc(-c4cccc(F)c4)cc3[C@@H]21,–,–,3.43 µM (active),–
C[C@@H]1CN([C@@H](C)CO)C(=O)c2c(c3ccccc3n2C)-c2ccccc2CO[C@H]1CN(C)C(=O)Nc1ccc(-c2ccccc2)cc1,–,–,3.77 µM (active),–
COc1ccc(-c2ccc([C@@H]3[C@@H](CO)N4C(=O)CN(C(=O)C5CCCC5)C[C@@H]34)cc2)cc1,–,–,4.83 µM (active),–
